The values below come from US20140343000A1 (priority 2011, published 2014).

The assay has as its system recombinant NL4-3 virus (Renilla luciferase in nef, Gag P373S; NLRluc) in MT-2 cells. The experiment in a line: whole plant or invertebrate. It counts as cell-based, HIV. Particulars: Renilla, NL43, luciferase activity in cells infected for 4-5 days with NLRluc recombinants, serial dilutions of inhibitor; class symbols (key in Table 1); read-out: EC50. In short, it runs like this:
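Inhibitor potency against the reporter virus comes from reduced luciferase activity in infected MT-2 cells exposed to a dilution series of compound over 4-5 days.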
One may read the EC50 as the concentration that produces a half-maximal response. As to `C=C(C)[C@@H]1CC[C@]2(NC(=O)CN[C@H](CO)c3ccccc3)CC[C@]3(C)[C@H](CC[C@@H]4[C@@]5(C)CC=C(c6ccc(C(=O)O)cc6)C(C)(C)[C@@H]5CC[C@]43C)[C@@H]12` [Example 108, 4-((1R,3aS,5aR,5bR,7aR,11aS,11bR,13aR,13bR)-3a-(2-((S)-2-hydroxy-1-phenylethylamino)acetamido)-5a,5b,8,8,11a-pentamethyl-1-(prop-1-en-2-yl)-2,3,3a,4,5,5a,5b,6,7,7a,8,11,11a,11b,12,13,13a,13b-octadecahydro-1H-cyclopenta[a]chrysen-9-yl)benzoic acid], the EC50 was < 100 nM.

`C=C(C)[C@@H]1CC[C@]2(NC(=O)CN3CC[C@H](NC(=O)OC(C)(C)C)C3=O)CC[C@]3(C)[C@H](CC[C@@H]4[C@@]5(C)CC=C(c6ccc(C(=O)O)cc6)C(C)(C)[C@@H]5CC[C@]43C)[C@@H]12` [Example 109, 4-((1R,3aS,5aR,5bR,7aR,11aS,11bR,13aR,13bR)-3a-(2-((S)-3-(tert-butoxycarbonylamino)-2-oxopyrrolidin-1-yl)acetamido)-5a,5b,8,8,11a-pentamethyl-1-(prop-1-en-2-yl)-2,3,3a,4,5,5a,5b,6,7,7a,8,11,11a,11b,12,13,13a,13b-octadecahydro-1H-cyclopenta[a]chrysen-9-yl)benzoic acid]: the half-maximal effective concentration (EC50) is < 100 nM. For `C=C(C)[C@@H]1CC[C@]2(NC(=O)C(NC3CCS(=O)(=O)C3)C(C)C)CC[C@]3(C)[C@H](CC[C@@H]4[C@@]5(C)CC=C(c6ccc(C(=O)O)cc6)C(C)(C)[C@@H]5CC[C@]43C)[C@@H]12` (stereo partly drawn) [Example 112, benzoic acid, 4-[(1R,3aS,5aR,5bR,7aR,11aS,11bR,13aR,13bR)-2,3,3a,4,5,5a,5b,6,7,7a,8,11,11a,11b,12,13,13a,13b-octadecahydro-5a,5b,8,8,11a-pentamethyl-1-(1-methylethenyl)-3a-[[3-methyl-1-oxo-2-[(tetrahydro-1,1-dioxido-3-thienyl)amino]butyl]amino]-1H-cyclopenta[a]chrysen-9-yl]] the value was < 100 nM; for `C=C(C)[C@@H]1CC[C@]2(NC(=O)C3CCCN3S(C)(=O)=O)CC[C@]3(C)[C@H](CC[C@@H]4[C@@]5(C)CC=C(c6ccc(C(=O)O)cc6)C(C)(C)[C@@H]5CC[C@]43C)[C@@H]12` (stereo partly drawn) [Example 113, 4-((1R,3aS,5aR,5bR,7aR,11aS,11bR,13aR,13bR)-5a,5b,8,8,11a-pentamethyl-3a-(1-(methylsulfonyl)pyrrolidine-2-carboxamido)-1-(prop-1-en-2-yl)-2,3,3a,4,5,5a,5b,6,7,7a,8,11,11a,11b,12,13,13a,13b-octadecahydro-1H-cyclopenta[a]chrysen-9-yl)benzoic acid], < 100 nM; for `C=C(C)[C@@H]1CC[C@]2(NC(=O)[C@@H]3CC(F)(F)CN3C(=O)OC(C)(C)C)CC[C@]3(C)[C@H](CC[C@@H]4[C@@]5(C)CC=C(c6ccc(C(=O)O)cc6)C(C)(C)[C@@H]5CC[C@]43C)[C@@H]12` [Example 114, 4-((1R,3aS,5aR,5bR,7aR,11aS,11bR,13aR,13bR)-3a-((S)-1-(tert-butoxycarbonyl)-4,4-difluoropyrrolidine-2-carboxamido)-5a,5b,8,8,11a-pentamethyl-1-(prop-1-en-2-yl)-2,3,3a,4,5,5a,5b,6,7,7a,8,11,11a,11b,12,13,13a,13b-octadecahydro-1H-cyclopenta[a]chrysen-9-yl)benzoic acid], < 100 nM. `C=C(C)[C@@H]1CC[C@]2(NC(=O)CNS(=O)(=O)c3cccs3)CC[C@]3(C)[C@H](CC[C@@H]4[C@@]5(C)CC=C(c6ccc(C(=O)O)cc6)C(C)(C)[C@@H]5CC[C@]43C)[C@@H]12` [Example 115, 4-((1R,3aS,5aR,5bR,7aR,11aS,11bR,13aR,13bR)-5a,5b,8,8,11a-pentamethyl-1-(prop-1-en-2-yl)-3a-(2-(thiophene-2-sulfonamido)acetamido)-2,3,3a,4,5,5a,5b,6,7,7a,8,11,11a,11b,12,13,13a,13b-octadecahydro-1H-cyclopenta[a]chrysen-9-yl)benzoic acid]: the EC50 was < 100 nM. `C=C(C)[C@@H]1CC[C@]2(NC(=O)C(CC)NC3CCS(=O)(=O)C3)CC[C@]3(C)[C@H](CC[C@@H]4[C@@]5(C)CC=C(c6ccc(C(=O)O)cc6)C(C)(C)[C@@H]5CC[C@]43C)[C@@H]12` (stereo partly drawn) [Example 116, benzoic acid, 4-[(1R,3aS,5aR,5bR,7aR,11aS,11bR,13aR,13bR)-2,3,3a,4,5,5a,5b,6,7,7a,8,11,11a,11b,12,13,13a,13b-octadecahydro-5a,5b,8,8,11a-pentamethyl-1-(1-methylethenyl)-3a-[[1-oxo-2-[(tetrahydro-1,1-dioxido-3-thienyl)amino]butyl]amino]-1H-cyclopenta[a]chrysen-9-yl]]: the half-maximal effective concentration (EC50) was < 100 nM. For `C=C(C)[C@@H]1CC[C@]2(NC(=O)CN3CCCCS3(=O)=O)CC[C@]3(C)[C@H](CC[C@@H]4[C@@]5(C)CC=C(c6ccc(C(=O)O)cc6)C(C)(C)[C@@H]5CC[C@]43C)[C@@H]12` [Example 117, benzoic acid, 4-[(1R,3aS,5aR,5bR,7aR,11aS,11bR,13aR,13bR)-2,3,3a,4,5,5a,5b,6,7,7a,8,11,11a,11b,12,13,13a,13b-octadecahydro-5a,5b,8,8,11a-pentamethyl-1-(1-methylethenyl)-3a-[[(tetrahydro-1,1-dioxido-2H-1,2-thiazin-2-yl)acetyl]amino]-1H-cyclopenta[a]chrysen-9-yl]] the value was < 100 nM.

Consider `C=C(C)[C@@H]1CC[C@]2(NC(=O)CN3CCC(F)(F)CC3)CC[C@]3(C)[C@H](CC[C@@H]4[C@@]5(C)CC=C(c6ccc(C(=O)O)cc6)C(C)(C)[C@@H]5CC[C@]43C)[C@@H]12` [Example 118, 4-((1R,3aS,5aR,5bR,7aR,11aS,11bR,13aR,13bR)-3a-(2-(4,4-difluoropiperidin-1-yl)acetamido)-5a,5b,8,8,11a-pentamethyl-1-(prop-1-en-2-yl)-2,3,3a,4,5,5a,5b,6,7,7a,8,11,11a,11b,12,13,13a,13b-octadecahydro-1H-cyclopenta[a]chrysen-9-yl)benzoic acid], for which the EC50 is < 100 nM. For `C=C(C)[C@@H]1CC[C@]2(NC(=O)CN3CCC(F)(F)C3)CC[C@]3(C)[C@H](CC[C@@H]4[C@@]5(C)CC=C(c6ccc(C(=O)O)cc6)C(C)(C)[C@@H]5CC[C@]43C)[C@@H]12` [Example 119, 4-((1R,3aS,5aR,5bR,7aR,11aS,11bR,13aR,13bR)-3a-(2-(3,3-difluoropyrrolidin-1-yl)acetamido)-5a,5b,8,8,11a-pentamethyl-1-(prop-1-en-2-yl)-2,3,3a,4,5,5a,5b,6,7,7a,8,11,11a,11b,12,13,13a,13b-octadecahydro-1H-cyclopenta[a]chrysen-9-yl)benzoic acid] the value was < 100 nM; for `C=C(C)[C@@H]1CC[C@]2(NC(=O)Cc3cccnc3)CC[C@]3(C)[C@H](CC[C@@H]4[C@@]5(C)CC=C(c6ccc(C(=O)O)cc6)C(C)(C)[C@@H]5CC[C@]43C)[C@@H]12` [Example 120, benzoic acid, 4-[(1R,3aS,5aR,5bR,7aR,11aS,11bR,13aR,13bR)-2,3,3a,4,5,5a,5b,6,7,7a,8,11,11a,11b,12,13,13a,13b-octadecahydro-5a,5b,8,8,11a-pentamethyl-1-(1-methylethenyl)-3a-[(3-pyridinylacetyl)amino]-1H-cyclopenta[a]chrysen-9-yl]], < 100 nM.

Consider `C=C(C)[C@@H]1CC[C@]2(NC(=O)COc3cccnc3)CC[C@]3(C)[C@H](CC[C@@H]4[C@@]5(C)CC=C(c6ccc(C(=O)O)cc6)C(C)(C)[C@@H]5CC[C@]43C)[C@@H]12` [Example 121, 4-((1R,3aS,5aR,5bR,7aR,11aS,11bR,13aR,13bR)-5a,5b,8,8,11a-pentamethyl-1-(prop-1-en-2-yl)-3a-(2-(pyridin-3-yloxy)acetamido)-2,3,3a,4,5,5a,5b,6,7,7a,8,11,11a,11b,12,13,13a,13b-octadecahydro-1H-cyclopenta[a]chrysen-9-yl)benzoic acid], for which the half-maximal effective concentration (EC50) was < 100 nM. As to `C=C(C)[C@@H]1CC[C@]2(NC(=O)CN3CCCCC3)CC[C@]3(C)[C@H](CC[C@@H]4[C@@]5(C)CC=C(c6ccc(C(=O)O)cc6)C(C)(C)[C@@H]5CC[C@]43C)[C@@H]12` [Example 122, 4-((1R,3aS,5aR,5bR,7aR,11aS,11bR,13aR,13bR)-5a,5b,8,8,11a-pentamethyl-3a-(2-(piperidin-1-yl)acetamido)-1-(prop-1-en-2-yl)-2,3,3a,4,5,5a,5b,6,7,7a,8,11,11a,11b,12,13,13a,13b-octadecahydro-1H-cyclopenta[a]chrysen-9-yl)benzoic acid], the EC50 is < 100 nM.

For `C=C(C)[C@@H]1CC[C@]2(NC(=O)CN(C(C)C)C(C)C)CC[C@]3(C)[C@H](CC[C@@H]4[C@@]5(C)CC=C(c6ccc(C(=O)O)cc6)C(C)(C)[C@@H]5CC[C@]43C)[C@@H]12` [Example 123, 4-((1R,3aS,5aR,5bR,7aR,11aS,11bR,13aR,13bR)-3a-(2-(diisopropylamino)acetamido)-5a,5b,8,8,11a-pentamethyl-1-(prop-1-en-2-yl)-2,3,3a,4,5,5a,5b,6,7,7a,8,11,11a,11b,12,13,13a,13b-octadecahydro-1H-cyclopenta[a]chrysen-9-yl)benzoic acid], the half-maximal effective concentration (EC50) was < 100 nM.

In the case of `C=C(C)[C@@H]1CC[C@]2(NC(=O)CN3CCCCC3C)CC[C@]3(C)[C@H](CC[C@@H]4[C@@]5(C)CC=C(c6ccc(C(=O)O)cc6)C(C)(C)[C@@H]5CC[C@]43C)[C@@H]12` (stereo partly drawn) [Example 124, 4-((1R,3aS,5aR,5bR,7aR,11aS,11bR,13aR,13bR)-5a,5b,8,8,11a-pentamethyl-3a-(2-(2-methylpiperidin-1-yl)acetamido)-1-(prop-1-en-2-yl)-2,3,3a,4,5,5a,5b,6,7,7a,8,11,11a,11b,12,13,13a,13b-octadecahydro-1H-cyclopenta[a]chrysen-9-yl)benzoic acid], the EC50 is < 100 nM.
